# Peptide text beside a SMILES is read from it.
# Tests used:
# E. coli ATCC 25922 = format: cell-based, Escherichia coli; details: for Antimicrobial activity (MIC) Experimental values: ATCC 25922; for MIC in MH medium: ATCC 25922, 16 h
# Method: (§1) MIC: Minimal Inhibitory Concentration of AMPs in MH Medium Against E. coli ATCC 25922 Minimal inhibitory concentration (MIC) represents for the lowest concentration of peptide at which the AMP can still kill 90% of the bacteria. All MIC tests for WLK peptide series SEQ ID NO:1-13 were measured against Escherichia coli strain (ATCC 25922) in triplicate. Peptide concentration was determined by UV spectrophotometer (Ultrospec 1100 pro from Amersham Biosciences) at 280 nm with proper extinction coefficient. (Gill S. C. & Von Hippel P. H., Analytical biochemistry 1989, 182(2), 319-326). All of the samples were prepared from a stock solution containing peptides of concentrations 5, 2.5, 1.25, 0.625, 0.313, 0.156 and 0.078 mg/ml. Bacteria culture in the middle of logarithmic growth at a concentration of 5×10^5 colony-formation unit (CFU) and protein solution at the aforementioned concentrations were uniformly mixed in a 96-well culture plate (each well contains 1 microliter protein solution and 99 microliter of bacteria culture). After growing the culture at 37° C. for 16 hours, how bacterial growth was inhibited was measured by Thermo Max (Molecular Devices) at the wavelength of 600 nm. The MIC values were determined by triplicates of the above experiments.
# [1] = test system: Escherichia coli strain (ATCC 25922); format: cell-based
# Method: as §1, with “Minimal” for “MIC: Minimal Inhibitory Concentration of AMPs in MH Medium Against E. coli ATCC 25922 Minimal”
Antimicrobial activity (MIC) Experimental values (E. coli ATCC 25922) [µg/mL],MIC in MH medium (E. coli ATCC 25922) [µg/mL],"MIC in LYM medium, NaCl 50 [1] [µg/mL]","MIC in LYM medium, NaCl 100 [1] [µg/mL]","MIC in LYM medium, NaCl 200 [1] [µg/mL]","MIC in LYM medium, NaCl 300 [1] [µg/mL]","MIC in LYM medium, control [1] [µg/mL]",SMILES
6.25,6.25,3.13,3.13,6.25,12.5,3.13,"CC(C)C[C@H](NC(=O)[C@H](Cc1c[nH]c2ccccc12)NC(=O)[C@H](CCCCN)NC(=O)[C@H](CC(C)C)NC(=O)[C@H](Cc1c[nH]c2ccccc12)NC(=O)[C@H](CCCCN)NC(=O)[C@H](CCCCN)NC(=O)[C@H](CCCCN)NC(=O)[C@H](CCCCN)NC(=O)[C@H](CCCCN)NC(=O)[C@H](CC(C)C)NC(=O)[C@H](Cc1c[nH]c2ccccc12)NC(=O)[C@@H](N)CCCCN)C(=O)O [SEQ ID NO. 8, KWLKKKKKWLKWL] (H-KWLKKKKKWLKWL-OH; N-terminus and C-terminus assumed)"
6.25,6.25,3.13,6.25,12.5,25,1.56,"CC(C)C[C@H](NC(=O)[C@H](Cc1c[nH]c2ccccc12)NC(=O)[C@H](CCCCN)NC(=O)[C@H](CCCCN)NC(=O)[C@H](CCCCN)NC(=O)[C@H](CCCCN)NC(=O)[C@H](CCCCN)NC(=O)[C@H](CC(C)C)NC(=O)[C@H](Cc1c[nH]c2ccccc12)NC(=O)[C@H](CCCCN)NC(=O)[C@H](CC(C)C)NC(=O)[C@@H](N)Cc1c[nH]c2ccccc12)C(=O)N[C@@H](CCCCN)C(=O)O [SEQ ID NO. 6, WLKWLKKKKKWLK] (H-WLKWLKKKKKWLK-OH; N-terminus and C-terminus assumed)"
6.25,6.25,1.56,6.25,12.5,12.5,1.56,"CC(C)C[C@H](NC(=O)[C@H](Cc1c[nH]c2ccccc12)NC(=O)[C@H](CCCCN)NC(=O)[C@H](CC(C)C)NC(=O)[C@H](Cc1c[nH]c2ccccc12)NC(=O)[C@H](CCCCN)NC(=O)[C@H](CC(C)C)NC(=O)[C@H](Cc1c[nH]c2ccccc12)NC(=O)[C@@H](N)CCCCN)C(=O)N[C@@H](CCCCN)C(=O)N[C@@H](CCCCN)C(=O)N[C@@H](CCCCN)C(=O)N[C@@H](CCCCN)C(=O)O [SEQ ID NO. 2, KWLKWLKWLKKKK] (H-KWLKWLKWLKKKK-OH; N-terminus and C-terminus assumed)"
3.13,3.13,1.56,3.13,6.25,6.25,1.56,"CC(C)C[C@H](NC(=O)[C@H](Cc1c[nH]c2ccccc12)NC(=O)[C@H](CCCCN)NC(=O)[C@H](CC(C)C)NC(=O)[C@H](Cc1c[nH]c2ccccc12)NC(=O)[C@H](CCCCN)NC(=O)[C@H](CC(C)C)NC(=O)[C@H](Cc1c[nH]c2ccccc12)NC(=O)[C@H](CCCCN)NC(=O)[C@@H](N)CCCCN)C(=O)N[C@@H](CCCCN)C(=O)N[C@@H](CCCCN)C(=O)N[C@@H](CCCCN)C(=O)O [SEQ ID NO. 1, KKWLKWLKWLKKK, reference compound] (H-KKWLKWLKWLKKK-OH; N-terminus and C-terminus assumed)"
12.5,12.5,3.13,3.13,12.5,50,1.56,"CC(C)C[C@H](NC(=O)[C@H](Cc1c[nH]c2ccccc12)NC(=O)[C@H](CCCCN)NC(=O)[C@H](CC(C)C)NC(=O)[C@H](Cc1c[nH]c2ccccc12)NC(=O)[C@H](CCCCN)NC(=O)[C@@H](N)CC(C)C)C(=O)N[C@@H](CCCCN)C(=O)N[C@@H](CCCCN)C(=O)N[C@@H](CCCCN)C(=O)N[C@@H](CCCCN)C(=O)N[C@@H](CCCCN)C(=O)N[C@@H](Cc1c[nH]c2ccccc12)C(=O)O [SEQ ID NO. 4, LKWLKWLKKKKKW] (H-LKWLKWLKKKKKW-OH; N-terminus and C-terminus assumed)"
6.25,6.25,3.13,3.13,12.5,25,1.56,"CC(C)C[C@H](NC(=O)[C@H](Cc1c[nH]c2ccccc12)NC(=O)[C@H](CCCCN)NC(=O)[C@H](CC(C)C)NC(=O)[C@H](Cc1c[nH]c2ccccc12)NC(=O)[C@H](CCCCN)NC(=O)[C@H](CC(C)C)NC(=O)[C@@H](N)Cc1c[nH]c2ccccc12)C(=O)N[C@@H](CCCCN)C(=O)N[C@@H](CCCCN)C(=O)N[C@@H](CCCCN)C(=O)N[C@@H](CCCCN)C(=O)N[C@@H](CCCCN)C(=O)O [SEQ ID NO. 3, WLKWLKWLKKKKK] (H-WLKWLKWLKKKKK-OH; N-terminus and C-terminus assumed)"
1.56,1.56,3.13,1.56,3.13,12.5,1.56,"CC(C)C[C@H](NC(=O)[C@H](Cc1c[nH]c2ccccc12)NC(=O)[C@H](CCCCN)NC(=O)[C@H](CC(C)C)NC(=O)[C@H](Cc1c[nH]c2ccccc12)NC(=O)[C@H](CCCCN)NC(=O)[C@H](CC(C)C)NC(=O)[C@H](Cc1c[nH]c2ccccc12)NC(=O)[C@H](CCCCN)NC(=O)[C@H](CCCCN)NC(=O)[C@@H](N)CCCCN)C(=O)N[C@@H](CCCCN)C(=O)N[C@@H](CCCCN)C(=O)O [SEQ ID NO. 13, KKKWLKWLKWLKK] (H-KKKWLKWLKWLKK-OH; N-terminus and C-terminus assumed)"
6.25,6.25,3.13,3.13,12.5,50,3.13,"CC(C)C[C@H](NC(=O)[C@H](Cc1c[nH]c2ccccc12)NC(=O)[C@H](CCCCN)NC(=O)[C@H](CC(C)C)NC(=O)[C@H](Cc1c[nH]c2ccccc12)NC(=O)[C@H](CCCCN)NC(=O)[C@H](CCCCN)NC(=O)[C@H](CCCCN)NC(=O)[C@H](CCCCN)NC(=O)[C@H](CCCCN)NC(=O)[C@H](CC(C)C)NC(=O)[C@@H](N)Cc1c[nH]c2ccccc12)C(=O)N[C@@H](CCCCN)C(=O)O [SEQ ID NO. 9, WLKKKKKWLKWLK] (H-WLKKKKKWLKWLK-OH; N-terminus and C-terminus assumed)"
6.25,6.25,3.13,3.13,6.25,25,3.13,"CC(C)C[C@H](NC(=O)[C@H](Cc1c[nH]c2ccccc12)NC(=O)[C@H](CCCCN)NC(=O)[C@H](CC(C)C)NC(=O)[C@H](Cc1c[nH]c2ccccc12)NC(=O)[C@H](CCCCN)NC(=O)[C@H](CCCCN)NC(=O)[C@H](CCCCN)NC(=O)[C@H](CCCCN)NC(=O)[C@H](CCCCN)NC(=O)[C@@H](N)CC(C)C)C(=O)N[C@@H](CCCCN)C(=O)N[C@@H](Cc1c[nH]c2ccccc12)C(=O)O [SEQ ID NO. 10, LKKKKKWLKWLKW] (H-LKKKKKWLKWLKW-OH; N-terminus and C-terminus assumed)"
12.5,12.5,3.13,12.5,25,50,3.13,"CC(C)C[C@H](NC(=O)[C@H](Cc1c[nH]c2ccccc12)NC(=O)[C@H](CCCCN)NC(=O)[C@H](CCCCN)NC(=O)[C@H](CCCCN)NC(=O)[C@H](CCCCN)NC(=O)[C@H](CCCCN)NC(=O)[C@H](CC(C)C)NC(=O)[C@H](Cc1c[nH]c2ccccc12)NC(=O)[C@H](CCCCN)NC(=O)[C@H](CC(C)C)NC(=O)[C@H](Cc1c[nH]c2ccccc12)NC(=O)[C@@H](N)CCCCN)C(=O)O [SEQ ID NO. 5, KWLKWLKKKKKWL] (H-KWLKWLKKKKKWL-OH; N-terminus and C-terminus assumed)"

# — patent US10810329B2, “In silico design of peptides equilibrated in a lipid bilayer with partition free energies indicating probability of antimicrobial activity” (priority 2015, dated 2020)
